Molecules are shown by their SMILES. Converted amounts (≈) assume the structure as drawn.

The results in this text go back to patent US10106544B2, “1,2-dihydro-3H-pyrrolo[1,2-C]imidazol-3-one derivatives and their use as antibacterial agents” (priority 2014, dated 2018).

Holding throughout (test): Bacterial growth minimal inhibitory concentration (microdilution, cation-adjusted Mueller-Hinton Broth)
Common to all, as to format: cell-based

For test [1], the system named is E. coli ATCC25922. As to conditions: quinolone-sensitive strain; for MIC: Escherichia coli, ATCC25922, read-out: MIC for E. coli ATCC25922. The essentials: (§1)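 Broth microdilution in cation-adjusted Mueller-Hinton Broth per CLSI M7-A7, MIC in mg/L. K. pneumoniae A-651 is multiply resistant, including to quinolones. E. coli ATCC25922 and P. aeruginosa ATCC27853 are quinolone-sensitive.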

Test [2] concerns K. pneumoniae A-651. As to conditions: multiply-resistant strain (in particular quinolone-resistant); for MIC: Klebsiella pneumoniae, A651, read-out: MIC for K. Pneumoniae A-651. An outline of the steps: as §1
In test [3] the test system is P. aeruginosa ATCC27853. As to conditions: for MIC: Pseudomonas aeruginosa, ATCC27853, quinolone-sensitive strain, read-out: MIC for P. aeruginosa ATCC27853. An outline of the steps:
as §1

Usually MIC stands for the least concentration at which growth counts as inhibited. Take `C[C@@](CCN1Cc2cc(C#Cc3ccc(C4(N)CC4)s3)cn2C1=O)(C(=O)NO)S(C)(=O)=O` [Example 68, (R)-4-(6-((5-(1-aminocyclopropyl)thiophen-2-yl)ethynyl)-3-oxo-1H-pyrrolo[1,2-c]imidazol-2(3H)-yl)-N-hydroxy-2-methyl-2-(methylsulfonyl)butanamide]: the MIC is 0.125 µg/mL (≈ 0.262 µM) in test [1], 0.125 µg/mL (≈ 0.262 µM) in test [2] and 1 µg/mL (≈ 2.1 µM) in test [3].
Take `C[C@@]1(C#CC#Cc2cc3n(c2)C(=O)N(CC[C@](C)(C(=O)NO)S(C)(=O)=O)C3)C[C@H]1CO` [Example 36, (R)-N-hydroxy-4-(6-(((1R,2R)-2-(hydroxymethyl)-1-methylcyclopropyl)buta-1,3-diyn-1-yl)-3-oxo-1H-pyrrolo[1,2-c]imidazol-2(3H)-yl)-2-methyl-2-(methylsulfonyl)butanamide]: the MIC was found to be 0.125 µg/mL (≈ 0.279 µM) in test [1], 0.25 µg/mL (≈ 0.559 µM) in test [2] and 0.5 µg/mL (≈ 1.12 µM) in test [3].
For `C[C@@](CCN1Cc2cc(C#CC#CC34CC(CO)(C3)C4)cn2C1=O)(C(=O)NO)S(C)(=O)=O` [Example 30, (R)-N-hydroxy-4-(6-(4-(3-(hydroxymethyl)bicyclo[1.1.1]pentan-1-yl)buta-1,3-diyn-1-yl)-3-oxo-1H-pyrrolo[1,2-c]imidazol-2(3H)-yl)-2-methyl-2-(methylsulfonyl)butanamide] the same measures were 0.125 µg/mL (≈ 0.272 µM), 0.25 µg/mL (≈ 0.544 µM) and 0.5 µg/mL (≈ 1.09 µM).
For `C[C@@](CCN1Cc2cc(C#CC#CC3CN(C(=O)CO)C3)cn2C1=O)(C(=O)NO)S(C)(=O)=O` [Example 62, (R)-N-hydroxy-4-(6-((1-(2-hydroxyacetyl)azetidin-3-yl)buta-1,3-diyn-1-yl)-3-oxo-1H-pyrrolo[1,2-c]imidazol-2(3H)-yl)-2-methyl-2-(methylsulfonyl)butanamide], the MIC in test [1] is 1 µg/mL (≈ 2.1 µM); in test [2] it was 4 µg/mL (≈ 8.39 µM); in test [3], 1 µg/mL (≈ 2.1 µM).
On to `C[C@@](CCN1Cc2cc(C#Cc3ccc(OCCO)cc3)cn2C1=O)(C(=O)NO)S(C)(=O)=O` [Example 22, (R)-N-hydroxy-4-(6-((4-(2-hydroxyethoxy)phenyl)ethynyl)-3-oxo-1H-pyrrolo[1,2-c]imidazol-2(3H)-yl)-2-methyl-2-(methylsulfonyl)butanamide], for which the MIC stood at 0.125 µg/mL (≈ 0.263 µM) in test [1], 0.5 µg/mL (≈ 1.05 µM) in test [2] and 1 µg/mL (≈ 2.1 µM) in test [3].
For the molecule `C[C@@](CCN1Cc2cc(C#CC#CC3(CO)COC3)cn2C1=O)(C(=O)NO)S(C)(=O)=O` [Example 57], the “MIC for E. coli ATCC25922” value in test [1] amounted to 1 µg/mL. Moreover, the “MIC for K. Pneumoniae A-651” value in test [2] amounted to 2 µg/mL. The “MIC for P. aeruginosa ATCC27853” value in test [3] (quinolone-sensitive strain) was 4 µg/mL.
Turning to `C[C@@](CCN1Cc2cc(C#Cc3ccc(C(=O)CO)cc3)cn2C1=O)(C(=O)NO)S(C)(=O)=O` [Example 45, (R)-N-hydroxy-4-(6-((4-(2-hydroxyacetyl)phenyl)ethynyl)-3-oxo-1H-pyrrolo[1,2-c]imidazol-2(3H)-yl)-2-methyl-2-(methylsulfonyl)butanamide], the MIC stood at 0.25 µg/mL (≈ 0.528 µM) in test [1], 1 µg/mL (≈ 2.11 µM) in test [2] and 4 µg/mL (≈ 8.45 µM) in test [3].
For `CC(C)(CO)c1ccc(C#Cc2cc3n(c2)C(=O)N(CC[C@](C)(C(=O)NO)S(C)(=O)=O)C3)cc1` [Example 9, (R)-N-hydroxy-4-(6-((4-(1-hydroxy-2-methylpropan-2-yl)phenyl)ethynyl)-3-oxo-1H-pyrrolo[1,2-c]imidazol-2(3H)-yl)-2-methyl-2-(methylsulfonyl)butanamide] the same measures were 0.25 µg/mL (≈ 0.513 µM), 0.5 µg/mL (≈ 1.03 µM) and 0.5 µg/mL (≈ 1.03 µM).
For `C[C@@](CCN1Cc2cc(C#Cc3ccc([C@H]4C[C@@H]4CO)cc3)cn2C1=O)(C(=O)NO)S(C)(=O)=O` [Example 6, (R)-N-hydroxy-4-(6-((4-((1S,2S)-2-(hydroxymethyl)cyclopropyl)phenyl)ethynyl)-3-oxo-1H-pyrrolo[1,2-c]imidazol-2(3H)-yl)-2-methyl-2-(methylsulfonyl)butanamide] the same measures were 0.031 µg/mL (≈ 0.0638 µM), 0.125 µg/mL (≈ 0.257 µM) and 0.5 µg/mL (≈ 1.03 µM).
